pEC50: −log10 of the molar value.
Legend:
[1] = target: T1, Human leukocyte elastase (HLE) (Homo sapiens, UniProt P08246); experiment: Human leukocyte elastase assay; assay type: biochemical
T1 construct: gift of R. Senior, Washington University
T1 sequence (P08246 30-267): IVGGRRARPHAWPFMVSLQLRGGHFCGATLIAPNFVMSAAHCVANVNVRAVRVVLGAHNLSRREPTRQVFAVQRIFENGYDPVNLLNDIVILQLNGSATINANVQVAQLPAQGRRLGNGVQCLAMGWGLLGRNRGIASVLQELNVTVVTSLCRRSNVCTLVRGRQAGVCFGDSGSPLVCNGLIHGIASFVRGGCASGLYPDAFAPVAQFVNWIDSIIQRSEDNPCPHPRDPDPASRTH
Description: Human leukocyte elastase (HLE) (gift of R. Senior, Washington University) was dissolved in saline at 1 mg/ml and further diluted 1/20 in assay buffer (0.2 M Tris, pH 8.0) before use. 10 μl of test compound in DMSO (or DMSO alone), 100 μl of assay buffer and 50 μl of enzyme were added to 96 well plates, mixed and pre-incubated for 30 minutes at ambient temperature. Reaction was initiated by addition of 40 μl of 2.5 mM methoxysuccinyl-Ala-Ala-Pro-Val-p-nitroanilide (Sigma; 25 mM in DMSO diluted 1/10 in assay buffer before use). The increase in absorbance at 405 nm was monitored for 10 minutes with a Biotek EL340 plate reader.

[2] = system: HCMV engineered virus RC256; experiment: microbe, parasite or virus in culture; assay type: cell-based, human cytomegalovirus; details: Human betaherpesvirus 5, Fibroblast, read-out: Antiviral Activity RC256, first value (EC50)
[3] = @ 10 (concentration unit not given)
[4] = @ 100 (concentration unit not given)

SMILES	HLE, % @ concentration [1, 3] [% @ 10]	pEC50 [2]	HLE, % @ concentration [1, 4] [% @ 100]	HLE, % @ concentration ([1]; @ 1 (concentration unit not given)) [% @ 1]	HLE, % @ concentration ([1]; @ 6 (concentration unit not given)) [% @ 6]
CCN(C(=O)[C@H](Cc1ccc(OC)cc1)Nc1nc2ccc(CNC(=O)OC(C)(C)C)c(C)c2c(=O)o1)c1ccccc1 [Example 7u, 1,1-Dimethylethyl[[2-[[2-(ethylphenylamino)-1S-[(4-methoxyphenyl)methyl]-2-oxoethyl]amino]-5-methyl-4-oxo-4H-3,1-benzoxazin-6-yl]methyl]carbamate]	75	4.46	–	–	–
COC(=O)[C@H](Cc1ccc(OC)cc1)Nc1nc2ccc(NC(=O)OC(C)(C)C)c(C)c2c(=O)o1 [Example 6c, N-[6-[[(1,1-Dimethylethoxy)carbonyl]amino]-5-methyl-4-oxo-4H-3,1-benzoxazin-2-yl]-O-methyl-L-tyrosine, methyl ester]	–	4.23	29	–	–
Cc1c(CNC(=O)Nc2ccccc2)ccc2nc(N[C@@H](Cc3ccccc3)C(=O)N(C)Cc3ccccc3)oc(=O)c12 [Example 12f, N-Methyl-αS-[[5-methyl-4-oxo-6-[[[(phenylamino)carbonyl]amino]methyl]-4H-3,1-benzoxazin-2-yl]amino]-N-(phenylmethyl)benzenepropanamide]	–	4.85	–	55	–
Cc1c(NC(=O)OC(C)(C)C)ccc2nc(N[C@@H](C)C(=O)OC(C)(C)C)oc(=O)c12 [Example 6, N-[6-[[(1,1-Dimethylethoxy]carbonyl]amino]-5-methyl-4-oxo-4H-3,1-benzoxazin-2-yl]-L-alanine, 1,1-dimethylethyl Ester]	–	< 4.00	29	–	–
Cc1c(CNC(=O)OCc2ccccc2)ccc2nc(N[C@@H](Cc3ccccc3)C(=O)N(C)CCc3ccccc3)oc(=O)c12 [Example 9dd, Phenylmethyl[[5-methyl-2-[[2-[methyl(2-phenylethyl)amino]-2-oxo-1S-(phenylmethyl)ethyl]amino]-4-oxo-3,1-benzoxazin-6-yl]methyl]carbamate]	78	4.35	–	–	–
COC(=O)[C@H](CCS(C)(=O)=O)Nc1nc2ccc(NC(=O)OC(C)(C)C)c(C)c2c(=O)o1 [Example 6u, N-[6-[[(1,1-Dimethylethoxy)carbonyl]amino]-5-methyl-4-oxo-4H-3,1-benzoxazin-2-yl]-L-methionine sulfone, methyl ester]	–	4.00	29	–	–
COc1ccc(C[C@H](Nc2nc3ccc(NC(=O)OC(C)(C)C)c(C)c3c(=O)o2)C(=O)N(C)Cc2ccccc2)cc1 [Example 6dd, 1,1-Dimethylethyl[2-[[1S-[(4-methoxyphenyl)methyl]-2-[methyl(phenylmethyl)amino]-2-oxoethyl]amino]-5-methyl-4-oxo-4H-3,1-benzoxazin-6-yl]carbamate]	42	4.74	–	–	–
COc1ccc(C[C@H](Nc2nc3ccc(NC(=O)c4ccco4)c(C)c3c(=O)o2)C(=O)N(C)Cc2ccccc2)cc1 [Example 11u, N-[2-[[1S-[(4-Methoxyphenyl)methyl]-2-[methyl(phenylmethyl)amino]-2-oxoethyl]amino]-5-methyl-4-oxo-4H-3,1-benzoxazin-6-yl]furan-2-carboxamide]	19	4.74	–	–	–
Cc1c(CNC(=O)OC(C)(C)C)ccc2nc(N[C@@H](Cc3ccccc3)C(=O)N(C)Cc3ccccc3)oc(=O)c12 [Example 7j, 1,1-Dimethylethyl[[5-methyl-2-[[2-[methyl(phenylmethyl)amino]-2-oxo-1S-(phenylmethyl)ethyl]amino]-4-oxo-4H-3,1-benzoxazin-6-yl]methyl]carbamate]	31	4.85	–	–	–
Cc1c(NC(=O)OC(C)(C)C)ccc2nc(N[C@@H](Cc3ccc(OCCN4CCCC4)cc3)C(=O)N(C)Cc3ccccc3)oc(=O)c12 [Example 6ff, 1,1-Dimethylethyl[5-methyl-2-[[2-[methyl(phenylmethyl)amino]-2-oxo-1S-[[4-[2-(1-pyrrolidinyl)ethoxy]phenyl]methyl]ethyl]amino]-4-oxo-4H-3,1-benzoxazin-6-yl]carbamate]	–	4.30	75	–	–
CCN(C(=O)[C@H](Cc1ccccc1)Nc1nc2ccc(CNC(=O)OC(C)(C)C)c(C)c2c(=O)o1)c1ccccc1 [Example 7n]	16	4.80	–	–	–
Cc1c(CNC(=O)c2ccccn2)ccc2nc(N[C@@H](Cc3ccccc3)C(=O)N(C)Cc3ccccc3)oc(=O)c12 [Example 9s, N-[[5-Methyl-2-[[2-[methyl(phenylmethyl)amino]-2-oxo-1S-(phenylmethyl)ethyl]amino]-4-oxo-4H-3,1-benzoxazin-6-yl]methyl]pyridine-2-carboxamide]	55	5.12	–	–	–
Cc1c(CNC(=O)CN2CCOCC2)cc(Br)c2nc(N[C@@H](Cc3ccccc3)C(=O)N(C)Cc3ccccc3)oc(=O)c12 [Example 15e, N-[[8-Bromo-5-methyl-2-[[2-[methyl(phenylmethyl)amino]-2-oxo-1S-(phenylmethyl)ethyl]amino]-4-oxo-4H-3,1-benzoxazin-6-yl]methyl]morpholine-4-acetamide]	–	4.80	78	–	–
Cc1ccc(S(=O)(=O)NCc2cc(Br)c3nc(N[C@@H](Cc4ccccc4)C(=O)N(C)Cc4ccccc4)oc(=O)c3c2C)cc1 [Example 13d, αS-[[8-Bromo-5-methyl-6-[[[(4-methylphenyl)sulfonyl]amino]methyl]-4-oxo-4H-3,1-benzoxazin-2-yl]amino]-N-methyl-N-(phenylmethyl)benzenepropanamide]	87	5.10	–	–	–
Cc1c(NC(=O)OC(C)(C)C)ccc2nc(N[C@H]3CCN(c4ccc(C#N)cc4)C3=O)oc(=O)c12 [Example 6y]	25	4.17	–	–	–
COc1ccc(C[C@H](Nc2nc3ccc(N(C)C)c(C)c3c(=O)o2)C(=O)N(C)c2ccc(Cl)cc2)cc1 [Example 16c, N-(4-Chlorophenyl)-αS-[[6-(dimethylamino)-5-methyl-4-oxo-4H-3,1-benzoxazin-2-yl]amino]-4-methoxy-N-methylbenzenepropanamide]	18	4.74	–	–	–
CCOC(=O)NCc1ccc2nc(N[C@@H](Cc3ccc(OC)cc3)C(=O)N(C)Cc3ccccc3)oc(=O)c2c1C [Example 9g, Ethyl[[2-[[1S-[(4-methoxyphenyl)methyl]-2-[methyl(phenylmethyl)amino]-2-oxoethyl]amino]-5-methyl-4-oxo-4H-3,1-benzoxazin-6-yl]methyl]carbamate]	27	4.82	–	–	–
CCN(Cc1ccccc1)C(=O)[C@H](Cc1ccc(OC)cc1)Nc1nc2ccc(CNC(=O)OCc3ccccc3)c(C)c2c(=O)o1 [Example 9p, Phenylmethyl[[2-[[2-[ethyl(phenylmethyl)amino]-1S-[(4-methoxyphenyl)methyl]-2-oxoethyl]amino]-5-methyl-4-oxo-3,1-benzoxazin-6-yl]methyl]carbamate]	–	< 4.00	–	–	45
Cc1c(NC(=O)OC(C)(C)C)ccc2nc(N[C@@H](C)c3ccccc3)oc(=O)c12 [Example 6m, 6-[[(1,1-Dimethylethoxy)carbonyl]amino]-5-methyl-2-[[(1S)-phenylethyl]amino]-4H-3,1-benzoxazin-4-one]	–	4.30	82	–	–

From patent US6683077B2, “2-Amino-benzoxazinones for the treatment of viral infections” (G.D. Searle & Co., priority 1996, dated 2004)
